≈ marks a conversion by molar mass, not a printed value. Where a SMILES comes first, the peptide text is derived from it. The star is where a group is joined. Stearoyl = CCCCCCCCCCCCCCCCCC(=O)*; Myristoyl = CCCCCCCCCCCCCC(=O)*; Decanoyl = CCCCCCCCCC(=O)*
Assays:
Type in all cases: functional
Staphylococcus aureus = assay: Antimicrobial activity against Staphylococcus aureus ATCC 12600 after 17 to 20 hrs by serial dilution method
Candida albicans = assay: Antimicrobial activity against Candida albicans ATCC 14053 after 17 to 20 hrs by serial dilution method
Escherichia coli = assay: Antimicrobial activity against Escherichia coli ATCC 25922 after 17 to 20 hrs by serial dilution method

| MIC (Staphylococcus aureus) [µg/mL] | MIC (Candida albicans) [µg/mL] | MIC (Escherichia coli) [µg/mL] | Structure (SMILES) |
| --- | --- | --- | --- |
| 3.9 (≈ 3.55 µM) | > 62.5 | 7.8 (≈ 7.11 µM) | CCCCCCCCCC(=O)N[C@@H](CCCCN)C(=O)N[C@@H](CCCNC(=N)N)C(=O)N[C@H](C(=O)N[C@@H](Cc1c[nH]c2ccccc12)C(=O)N[C@@H](Cc1c[nH]c2ccccc12)C(=O)N[C@@H](CCCNC(=N)N)C(N)=O)[C@@H](C)CC (Decanoyl-KRIWWR-NH2) |
| 15.6 (≈ 13.5 µM) | > 62.5 | > 31.2 | CCCCCCCCCCCCCCCCCC(=O)N[C@@H](CCCCN)C(=O)N[C@@H](CCCCN)C(=O)N[C@H](C(=O)N[C@@H](CCCNC(=N)N)C(=O)N[C@@H](Cc1c[nH]c2ccccc12)C(=O)N[C@@H](CCCNC(=N)N)C(N)=O)[C@@H](C)CC (Stearoyl-KKIRWR-NH2) |
| 3.9 (≈ 3.18 µM) | > 62.5 | 7.8 (≈ 6.36 µM) | CCCCCCCCCC(=O)N[C@@H](CCCCN)C(=O)N[C@H](C(=O)N[C@@H](CCCCN)C(=O)N[C@@H](CCCNC(=N)N)C(=O)N[C@@H](Cc1c[nH]c2ccccc12)C(=O)N[C@@H](Cc1c[nH]c2ccccc12)C(=O)N[C@@H](CCCNC(=N)N)C(N)=O)[C@@H](C)CC (Decanoyl-KIKRWWR-NH2) |
| > 31.2 | > 62.5 | > 31.2 | CCCCCCCCCCCCCCCCCC(=O)N[C@@H](CCCCN)C(=O)N[C@H](C(=O)N[C@@H](CCCNC(=N)N)C(=O)N[C@@H](Cc1c[nH]c2ccccc12)C(=O)N[C@@H](Cc1c[nH]c2ccccc12)C(=O)N[C@@H](CCCNC(=N)N)C(N)=O)[C@@H](C)CC (Stearoyl-KIRWWR-NH2) |
| > 31.2 | > 62.5 | > 31.2 | CCCCCCCCCCCCCCCCCC(=O)N[C@@H](CCCCN)C(=O)N[C@@H](Cc1c[nH]c2ccccc12)C(=O)N[C@@H](CCCCN)C(=O)N[C@@H](Cc1c[nH]c2ccccc12)C(N)=O (Stearoyl-KWKW-NH2) |
| 31.2 (≈ 43 µM) | > 62.5 | > 31.2 | CCCCCCCCCCCCCCCCCC(=O)N[C@@H](CCCCN)C(=O)N[C@@H](Cc1c[nH]c2ccccc12)C(=O)N[C@@H](CCCCN)C(N)=O (Stearoyl-Lys-Trp-Lys-NH2) |
| 7.8 (≈ 7.7 µM) | > 62.5 | 15.6 (≈ 15.4 µM) | CCCCCCCCCCCCCC(=O)N[C@@H](CCCNC(=N)N)C(=O)N[C@@H](CCCCN)C(=O)N[C@@H](Cc1c[nH]c2ccccc12)C(=O)N[C@@H](Cc1c[nH]c2ccccc12)C(=O)N[C@@H](CCCCN)C(N)=O (Myristoyl-RKWWK-NH2) |
| 15.6 (≈ 21.5 µM) | > 62.5 | 15.6 (≈ 21.5 µM) | CCCCCCCCCCCCCC(=O)N[C@@H](CCCNC(=N)N)C(=O)N[C@@H](Cc1c[nH]c2ccccc12)C(=O)N[C@@H](CCCNC(=N)N)C(N)=O (Myristoyl-Arg-Trp-Arg-NH2) |
| 3.9 (≈ 4.27 µM) | 15.6 (≈ 17.1 µM) | 7.8 (≈ 8.54 µM) | CCCCCCCCCC(=O)N[C@@H](CCCCN)C(=O)N[C@H](C(=O)N[C@@H](Cc1c[nH]c2ccccc12)C(=O)N[C@@H](Cc1c[nH]c2ccccc12)C(=O)N[C@@H](CCCCN)C(N)=O)[C@@H](C)CC (Decanoyl-KIWWK-NH2) |
| 15.6 (≈ 12.2 µM) | > 62.5 | 31.2 (≈ 24.3 µM) | CCCCCCCCCCCCCC(=O)N[C@@H](CCCCN)C(=O)N[C@H](C(=O)N[C@@H](CCCCN)C(=O)N[C@@H](CCCNC(=N)N)C(=O)N[C@@H](Cc1c[nH]c2ccccc12)C(=O)N[C@@H](Cc1c[nH]c2ccccc12)C(=O)N[C@@H](CCCNC(=N)N)C(N)=O)[C@@H](C)CC (Myristoyl-KIKRWWR-NH2) |
| > 31.2 | > 62.5 | > 31.2 | CCCCCCCCCCCCCCCCCC(=O)N[C@@H](CCCCN)C(=O)N[C@H](C(=O)N[C@@H](CCCCN)C(=O)N[C@@H](CCCNC(=N)N)C(=O)N[C@@H](Cc1c[nH]c2ccccc12)C(=O)N[C@@H](CCCNC(=N)N)C(N)=O)[C@@H](C)CC (Stearoyl-KIKRWR-NH2) |
| 7.8 (≈ 6.93 µM) | > 62.5 | 15.6 (≈ 13.9 µM) | CCCCCCCCCCCCCC(=O)N[C@@H](CCCNC(=N)N)C(=O)N[C@H](C(=O)N[C@@H](CCCCN)C(=O)N[C@@H](Cc1c[nH]c2ccccc12)C(=O)N[C@@H](Cc1c[nH]c2ccccc12)C(=O)N[C@@H](CCCCN)C(N)=O)[C@@H](C)CC (Myristoyl-RIKWWK-NH2) |
